Like-named read-outs stand apart in the source and are kept apart here. One block for each molecule: values may come before it.
Assays:
primary cortical neurons = test: cells; type: cell-based, mouse; settings: for Protection against hemin-induced toxicity (in words): MTT
Method: Primary cortical neuronal cultures: Primary cortical neurons were collected from embryonic (E15) CD1 mice. The cortices of the mice were dissected, homogenized, and plated in minimum essential medium containing 10% fetal bovine serum (FBS), 5% horse serum, and 1% penicillin/streptomycin in 96-well plates, 6-well plates, or 10-cm dishes. The neurons were maintained at 37° C. with 5% CO2. All experiments were conducted 24 hours after plating.
In vitro ICH model: Ferroptosis is a type of programmed cell death that is dependent on iron, and is characterized by the accumulation of lipid peroxides. Ferroptosis is genetically and biochemically distinct from other forms of regulated cell death such as apoptosis. Ferroptosis is initiated by the failure of the glutathione-dependent antioxidant defenses, resulting in unchecked lipid peroxidation and eventual cell death.
Cell death was induced in primary cortical neurons by treating the neurons with hemin, a blood breakdown product. For the neuroprotection studies, cells were treated with hemin (100 μM) in the presence of NAC (0.1 mM to 1mM), 6-hydroxy-2,5,7,8-tetramethylchroman-2-carboxylic acid (trolox; 0.1 μM to 100 μM), β-carotene (0.1 μM to 100 μM) α-lipoic acid (0.01 mM to 2 mM), glutathione ethyl ester (1 mM to 10 mM), oxothiazolidine-4-carboxylate (1 mM to 10 mM), cystamine (0.1 μM to 10 μM), or nordihydroguaiaretic acid (0.1 μM to 10 μM). Cell viability was analyzed 24 h after treatment. The cells were rinsed with warm phosphate-buffered saline (PBS) and assessed using an MTT assay. The fidelity of the MTT assays in measuring viability was verified by calcein-AM/ethidium homodimer-1 staining (Live/Dead assay).
The ability of NAC to protect cells was investigated in a hemin model of hemorrhagic stroke. The in vitro model of ICH involved the administration of hemin, a breakdown product of hemoglobin from lysed blood, to trigger cell death. Treatment of primary cortical neurons with 100 μM hemin induced widespread cell death through a ferroptotic mechanism, which was quantified with MTT and qualitatively observed using live/dead staining. Living cells were labeled with calcein-AM, and dead cells were labeled with ethidium homodimer. […] Scale bars: 100 μm.
A systematic pharmacological screening of oxidized lipid species inhibitors in the context of hemin-induced cell death was performed in primary cortical neurons. Primary cortical neurons were co-treated with hemin and a non-specific or enzymatic lipid peroxidation inhibitor. The MTT assays were performed 18 h following the co-treatment.

[1] = test system: collagenase-induced mouse model of ICH; test: In vivo collagenase-induced mouse model of ICH (Fluoro-Jade staining, corner task, adhesive tape removal task, hematoma size)
Method: In vivo collagenase-induced mouse model of ICH: Male C57BL/6 mice (8 to 10 weeks of age) or mice (10 to 12 weeks of age) were anesthetized with isoflurane (2% to 5%) and placed on a stereotaxic frame. During the procedure, the animal's body temperature was maintained at 37° C. with a homeothermic blanket. 1 mL of collagenase (0.075 IU) was infused into the right striatum at a flow rate of 0.120 μL/min using a Nanomite® syringe pump and a syringe. Relative to the bregma point, the stereotaxic coordinates of the injection were: lateral, −0.20; anteroposterior, 0.62; and dorsoventral, −0.40. In control animals, 1 mL of saline was infused. The treatment group received NAC (75 mg/kg or 300 mg/kg in normal saline, I.P.) once a day for 7 days starting at 2 h after collagenase infusion. For combinatorial studies, NAC (40 mg/kg, I.P.) and PGE 2 (10 μM, ICV) were administered to the mice 2 h after the collagenase injection, and then NAC (40 mg/kg) was administered once daily for 7 days. The control groups received the vehicle (normal saline) alone. The animals were randomized to sham or ICH groups. The identities of the mice that received vehicle or NAC were masked to surgeons who performed the experiments. […] Proper postoperative care was provided until the animals recovered completely.
Behavioral analysis: The corner task assessed integrated sensorimotor function in the stimulation of vibrissae (sensory neglect) and rearing (motor response). Mice were placed between two cardboard pieces that formed a corner with a 30° angle. While maintaining the 30° angle, the boards were gradually moved toward the mouse until the mouse approached the corner, reared upward, and turned 180° to face the open end. The direction (left or right) in which the mouse turned was recorded for each trial. Ten trials were performed for each mouse.
For the sensory neglect task (adhesive tape removal task), adhesive tape was placed on the planter region of the forward paw (right and left) of each mouse. The time from which the tape was applied to when the mouse successfully removed the tape was recorded for each paw. A maximum of 300 s for each paw was allowed.
Fluoro-Jade® B staining: Neurodegeneration of cells was assessed in mice with collagenase-induced ICH using Fluoro-Jade® B staining. 40 μM brain sections were mounted on gelatin-coated slides and dried at room temperature overnight. The sections were immersed in a graded series of alcohol solutions before being immersed in a 0.06% potassium permanganate (KMnO4) solution for 15 min. Sections were washed with water before being immersed in a 0.001% Fluoro-Jade® staining solution with gentle shaking in the dark for 30 min. The sections were then washed with water and dried overnight at room temperature in the dark before being dehydrated and coverslipped with DPX. Fluoro-Jade® B staining was examined within perihematoma or hematoma regions using a fluorescence microscope. Quantification of Fluoro-Jade® B staining was performed using three brain sections (anterior to posterior of hematoma) using Metamorph analysis.
The vehicle or NAC was then administered daily up to 7 days following the ictus. Neuronal loss was determined using a non-specific marker of neurodegeneration, Fluoro-Jade® staining. […] Mouse behavior was assessed using a corner task (spatial neglect) and an adhesive tape removal task (sensory neglect). Mouse behavior was assessed on day 1, 3, and 7 after the induction of ICH.

recombinant ALOX5 = target: T1, recombinant ALOX5 (Homo sapiens, UniProt P09917); test: Lipoxygenase UV/Vis-based IC50 assay with recombinant ALOX5; type: biochemical; settings: test tube assay
T1 sequence (P09917 1-674): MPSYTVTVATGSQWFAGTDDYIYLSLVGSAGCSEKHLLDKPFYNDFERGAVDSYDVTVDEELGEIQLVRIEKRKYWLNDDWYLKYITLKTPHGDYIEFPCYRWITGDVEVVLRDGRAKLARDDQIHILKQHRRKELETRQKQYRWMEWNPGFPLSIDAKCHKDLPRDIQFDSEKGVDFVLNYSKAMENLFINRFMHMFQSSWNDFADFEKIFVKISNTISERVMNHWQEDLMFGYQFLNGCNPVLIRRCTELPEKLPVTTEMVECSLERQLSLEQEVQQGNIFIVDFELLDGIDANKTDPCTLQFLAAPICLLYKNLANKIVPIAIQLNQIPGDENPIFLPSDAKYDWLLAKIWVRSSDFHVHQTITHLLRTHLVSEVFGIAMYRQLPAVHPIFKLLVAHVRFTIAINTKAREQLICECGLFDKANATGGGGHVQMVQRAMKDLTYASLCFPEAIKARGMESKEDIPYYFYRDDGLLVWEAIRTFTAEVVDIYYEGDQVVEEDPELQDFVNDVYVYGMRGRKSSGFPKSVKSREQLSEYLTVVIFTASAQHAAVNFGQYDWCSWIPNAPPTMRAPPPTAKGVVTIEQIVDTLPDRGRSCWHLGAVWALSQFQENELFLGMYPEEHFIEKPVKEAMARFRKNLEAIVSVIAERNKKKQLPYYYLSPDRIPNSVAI
Method: Lipoxygenase UV/Vis-based IC50 assay: Inhibition potencies were determined by following the formation of conjugated diene products, 5-HpETE [ε=27000 M^−1 cm^−1 for AA turnover) at 234 nm using a UV/Vis spectrophotometer. All reaction mixtures were 2 mL in volume, and the reaction mixtures were constantly stirred using a magnetic stir bar at room temperature (23° C.). All reactions were carried out in a buffer containing 200 μM ATP and 10 μM AA. The AA concentration of a sample was verified by full turnover with soybean-1 lipoxygenase and quantifying the product concentration. Inhibitors were stored in DMSO at −20° C. Enzymatic reactions were initiated by adding approximately 100 nM-300 nM ammonium sulfate-precipitated wildtype enzyme. IC50 values were obtained by determining the enzymatic rate at a minimum of five inhibitor concentrations, plotting the enzymatic rate against inhibitor concentration, and performing a hyperbolic saturation curve fit. Inhibitor concentrations were assayed in duplicate or triplicate.
Significance was determined by two-way ANOVA and Bonferroni's post hoc test.

lipid protein adducts = test: Hemin-induced lipid protein adduct formation (Bt-AA, streptavidin-HRP Western blot) in primary neurons; type: cell-based, mouse; settings: for AA-protein adduct formation: non-protective doses: NAC 0.1 mM, vitamin E 1 μM, zileuton 1 μM; for Lipid protein adduct formation: protective doses: NAC 1 mM, vitamin E 10 μM, zileuton 10 μM
Method: Electrophilic attack by ALOX5 products could alter cellular protein-mediated signaling to trigger cell death. Arachidonic acid (AA) tagged with biotin (Bt-AA) was used to monitor the formation of covalent protein adducts. To test whether hemin was sufficient to catalyze the formation of protein-reactive lipid species, primary neurons were treated with hemin at concentrations of 5 μM-50 μM for 4 h. Lipid protein adducts were detected by Western blots probed with Streptavidin-HRP. Bt-AA incorporation into protein increased with increasing concentrations of hemin, and significant lipid protein adducts were detected at 50 μM hemin. […] The blot is representative from replicates of three experiments. The arrow indicates the decrease in lipid protein adduct formation.

[2] = primary cortical neurons, 100 μM hemin
[3] = Mus musculus, Primary cortical neuron, protection from 100 μM hemin, MTT (Table 2), read-out: EC50
[4] = protection from 100 μM hemin, MTT (Table 2), read-out: EC50
[5] = NAC 40 mg/kg i.p. and/or PGE2 10 μM ICV, days 1, 3, 7

Molecule: CC(=O)Oc1ccccc1C(=O)O [Aspirin]
Protection against hemin-induced toxicity (in words) (primary cortical neurons; [2]): failed to protect against hemin toxicity

Molecule: CCCCS(=N)(=O)CCC(N)C(=O)O (centres unmarked) [BSO, buthionine sulfoximine]
Effect on NAC-induced protection from hemin (primary cortical neurons; co-treatment with NAC and BSO): reversed NAC-induced protection

Molecule: CC(=O)N(O)C/C=C/c1cccc(Oc2ccccc2)c1 [BW A4C]
EC50 (primary cortical neurons; 100 μM hemin, primary cortical neurons, read-out: EC50 for reduction of hemin-induced toxicity/ferroptosis): 5 µM

Molecule: CC(C=Cc1cccc(Oc2ccc(F)cc2)c1)N(O)C(N)=O (centres unmarked) [BW B70]
Protection against hemin-induced toxicity (in words) (primary cortical neurons; [2]): significantly reduced hemin-induced toxicity

Molecule: NCCSSCCN [Cystamine]
EC50 (primary cortical neurons; [3]): 7.5 µM | Protection against hemin-induced toxicity (in words) (primary cortical neurons; [2]): prevented hemin-induced death as effectively as NAC

Molecule: CCOC(=O)CNC(=O)[C@H](CS)NC(=O)CC[C@H](N)C(=O)O [Glutathione ethyl ester]
Protection against hemin-induced toxicity (in words) (primary cortical neurons; [2]): prevented hemin-induced death as effectively as NAC | EC50 (primary cortical neurons; [4]): 2500 µM

Molecule: COc1ccc2c(c1)c(CC(=O)O)c(C)n2C(=O)c1ccc(Cl)cc1 [Indomethacin]
Protection against hemin-induced toxicity (in words) (primary cortical neurons; [2]): failed to protect against hemin toxicity

Molecule: C#CCOc1ccccc1CCCCCC(=O)NS(C)(=O)=O [MS-PPOH]
Protection against hemin-induced toxicity (in words) (primary cortical neurons; [2]): failed to protect against hemin toxicity

Molecule: CCC(=O)NC(c1cccs1)c1cc([N+](=O)[O-])c2cccnc2c1O (centres unmarked) [NCTT-956]
Protection against hemin-induced toxicity (in words) (primary cortical neurons; [2]): failed to protect against hemin toxicity

Molecule: CC(Cc1ccc(O)c(O)c1)C(C)Cc1ccc(O)c(O)c1 (centres unmarked) [Nordihydroguaiaretic acid]
EC50 (primary cortical neurons; [3]): 5 µM | Protection against hemin-induced toxicity (in words) (primary cortical neurons; [2]): prevented hemin-induced death as effectively as NAC

Molecule: O=C1NC(C(=O)O)CS1 (centres unmarked) [Oxothiazolidine-4-carboxylate]
Protection against hemin-induced toxicity (in words) (primary cortical neurons; [2]): prevented hemin-induced death as effectively as NAC | EC50 (primary cortical neurons; [4]): 2500 µM

Molecule: c1ccc2c(c1)SCc1c-2[nH]c2ccccc12 [PD146176]
Protection against hemin-induced toxicity (in words) (primary cortical neurons; [2]): failed to protect against hemin toxicity

Molecule: CCCCC[C@H](O)/C=C/[C@H]1[C@H](O)CC(=O)[C@@H]1C/C=C\CCCC(=O)O [PGE2, prostaglandin E2]
Sensory neglect (adhesive tape removal task) behavioral deficits [1, 5]: no effect | Spatial neglect (corner task) behavioral deficits [1, 5]: no effect

Inhibition of ALOX5 activity (recombinant ALOX5): effective in inhibiting ALOX5
Molecule: CC(c1cc2ccccc2s1)N(O)C(N)=O (centres unmarked) [Zileuton]
EC50 (primary cortical neurons; Mus musculus, Primary cortical neuron, 100 μM hemin, primary cortical neurons, read-out: EC50 for reduction of hemin-induced toxicity/ferroptosis): 7 µM | AA-protein adduct formation (lipid protein adducts): did not decrease AA-protein adduct formation | Lipid protein adduct formation (lipid protein adducts): decreased lipid protein adduct formation

Molecule: CCCCC(C)(C)[C@H](O)/C=C/[C@H]1[C@H](O)CC(=O)[C@@H]1C/C=C\CCCC(=O)O [dmPGE2, 16,16-dimethyl PGE2]
Protection against hemin-induced toxicity (in words) (primary cortical neurons; [2]): dose-dependently abrogated hemin-induced toxicity | Neuronal degeneration in perihematomal regions (Fluoro-Jade staining) ([1]; NAC 40 mg/kg i.p. daily 7 days and/or dmPGE2 10 μM ICV 2 h post-injury): no significant effect

Molecule: Cc1c(C)c2c(c(C)c1O)CCC(C)(C(=O)O)O2 (centres unmarked) [trolox, 6-hydroxy-2,5,7,8-tetramethylchroman-2-carboxylic acid]
Protection against hemin-induced toxicity (in words) (primary cortical neurons; [2]): abrogated hemin-induced toxicity in a dose-dependent manner

Molecule: Cc1c(C)c2c(c(C)c1O)CC[C@@](C)(CCC[C@H](C)CCC[C@H](C)CCCC(C)C)O2 [vitamin E, α-tocopherol]
AA-protein adduct formation (lipid protein adducts): did not decrease AA-protein adduct formation | Lipid protein adduct formation (lipid protein adducts): decreased lipid protein adduct formation

Molecule: O=C(O)CCCCC1CCSS1 (stereo not drawn) [α-Lipoic acid, α-lipoic acid]
Protection against hemin-induced toxicity (in words) (primary cortical neurons; [2]): failed to prevent hemin toxicity at any dose examined

Inhibition of ALOX5 activity (recombinant ALOX5): did not inhibit ALOX5 activity
Molecule: CC1=C(/C=C/C(C)=C/C=C/C(C)=C/C=C/C=C(C)/C=C/C=C(C)/C=C/C2=C(C)CCCC2(C)C)C(C)(C)CCC1 [β-carotene]
Protection against hemin-induced toxicity (in words) (primary cortical neurons; [2]): protected against hemin-induced toxicity

Molecule: Hemin
% Viability (primary cortical neurons): 50.14% | EC50 (primary cortical neurons; hemin itself (toxic stimulus), Table 2 EC50 column, read-out: EC50): 100 µM

— patent publication US11963939B2, “Use of N-acetylcysteine to treat central nervous system disorders” (Neuronasal, Inc., priority 2017, dated 2024)
